Laboratory results as given in patent publication US9422267B2, “Fused pyrimidine compounds and use thereof” (Medivation Technologies, Inc., priority 2012, dated 2016).

Experiments:
PANC-1 = test: Cell viability: pancreatic cancer cell line PANC-1; assay type: cell-based; conditions: Homo sapiens; PANC-1 pancreatic cancer cell line
Protocol: This assay quantitates the ATP present in order to determine the number of viable cells in culture. Briefly, the compounds were incubated with the cells for 72 h, followed by cell lysis. The resulting luminescent signal is proportional to the amount of ATP present and, therefore, directly proportional to the number of cells present in culture.
Analogous studies utilizing pancreatic cancer cell lines such as ASPC-1 and PANC-1 can be performed with compounds of the invention.

[1] = test system: human colon cancer COLO-205 cells; test: Efficacy in xenograft model of human colon cancer; assay type: in vivo, mice
Protocol: To evaluate the efficacy of tumor growth inhibition, the compound 8b was studied using human cancer mouse models. The models are prepared by subcutaneously or orthotopically implanting mice with human cancer cells. When the tumor size of the mice develops (e.g., reaches 100 mm^3), the mice are divided into groups for treatment with compound 8b (where different groups receiving the compound 8b may be administered different amounts of the compound 8b) or are provided no compound as a control. The mice are treated (e.g., orally administered a compound of the invention) for a period of time. During the course of the study, the tumor is measured and the weight of the mice is determined. After the treatment period, the mice are sacrificed shortly (e.g. 1 or 2 hours) after the final dose. Blood and tissue are collected for biochemical analysis.
To evaluate the efficacy of tumor growth inhibition, compound 8b was studied using a human colon cancer mouse model. […] Tumor volume and mouse body weight were monitored over the 20 day experiment. […]
The appropriate amount of compound 8b was sonicated in a PEG-400 solution (80% w/v in case of Example B6B; and 50% w/v in case of Example B6C) to completely dissolve the compound, followed by dropwise addition of the required amount of H2O. […] During the course of the study, the tumor was measured and the weight of the mice was determined. […]

LTK = LTK (Homo sapiens, UniProt P29376); test: Caliper kinase profiling: LTK; assay type: biochemical; conditions: read-out: Average % Inh @ 1 μM
FRK = FRK (Homo sapiens, UniProt P42685); test: Caliper kinase profiling: FRK; assay type: biochemical; conditions: read-out: Average % Inh @ 1 μM
BTK = BTK (Homo sapiens, UniProt Q06187); test: Caliper kinase profiling: BTK; assay type: biochemical; conditions: read-out: Average % Inh @ 1 μM
BLK = biological target: T1, BLK (Homo sapiens, UniProt P51451); test: Caliper kinase profiling: BLK; assay type: biochemical
T1 construct: purchased Caliper LifeSciences (ProfilerPro Kinase Selectivity Assay Kits)
T1 sequence (P51451 whole entry): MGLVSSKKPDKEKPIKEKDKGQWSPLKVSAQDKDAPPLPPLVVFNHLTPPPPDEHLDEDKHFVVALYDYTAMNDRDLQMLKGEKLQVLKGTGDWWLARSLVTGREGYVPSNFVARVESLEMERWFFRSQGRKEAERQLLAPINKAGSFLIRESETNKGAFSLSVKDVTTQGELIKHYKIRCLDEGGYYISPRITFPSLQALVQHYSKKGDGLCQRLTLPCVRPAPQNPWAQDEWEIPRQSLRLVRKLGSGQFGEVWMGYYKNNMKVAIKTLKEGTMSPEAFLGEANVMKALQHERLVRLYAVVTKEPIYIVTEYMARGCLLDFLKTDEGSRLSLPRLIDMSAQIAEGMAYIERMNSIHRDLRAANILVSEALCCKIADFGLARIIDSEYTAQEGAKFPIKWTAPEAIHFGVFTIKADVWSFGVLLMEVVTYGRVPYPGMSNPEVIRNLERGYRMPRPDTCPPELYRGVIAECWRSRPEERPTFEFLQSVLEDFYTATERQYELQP

Yes = Yes (Homo sapiens, UniProt P07947); test: Caliper kinase profiling: Yes; assay type: biochemical
Sequence of Yes (P07947 whole entry): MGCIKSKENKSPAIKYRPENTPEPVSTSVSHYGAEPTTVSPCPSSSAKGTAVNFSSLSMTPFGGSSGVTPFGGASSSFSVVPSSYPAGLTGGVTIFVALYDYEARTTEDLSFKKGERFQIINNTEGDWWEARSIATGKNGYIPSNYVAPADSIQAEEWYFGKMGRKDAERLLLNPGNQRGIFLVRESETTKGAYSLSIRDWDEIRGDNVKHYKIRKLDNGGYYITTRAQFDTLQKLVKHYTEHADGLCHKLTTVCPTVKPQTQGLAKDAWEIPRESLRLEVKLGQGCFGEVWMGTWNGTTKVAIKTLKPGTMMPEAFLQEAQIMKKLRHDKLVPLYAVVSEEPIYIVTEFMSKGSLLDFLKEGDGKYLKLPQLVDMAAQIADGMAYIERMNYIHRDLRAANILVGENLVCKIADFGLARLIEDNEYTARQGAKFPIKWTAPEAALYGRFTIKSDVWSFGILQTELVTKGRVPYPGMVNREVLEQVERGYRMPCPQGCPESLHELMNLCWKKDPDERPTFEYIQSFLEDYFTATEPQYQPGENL

EPHA4 = EPHA4 (Homo sapiens, UniProt P54764); test: Caliper kinase profiling: EPHA4; assay type: biochemical; conditions: EPHA4, 1 μM; read-out: Average % Inh @ 1 μM
Sequence of EPHA4 (P54764 20-986): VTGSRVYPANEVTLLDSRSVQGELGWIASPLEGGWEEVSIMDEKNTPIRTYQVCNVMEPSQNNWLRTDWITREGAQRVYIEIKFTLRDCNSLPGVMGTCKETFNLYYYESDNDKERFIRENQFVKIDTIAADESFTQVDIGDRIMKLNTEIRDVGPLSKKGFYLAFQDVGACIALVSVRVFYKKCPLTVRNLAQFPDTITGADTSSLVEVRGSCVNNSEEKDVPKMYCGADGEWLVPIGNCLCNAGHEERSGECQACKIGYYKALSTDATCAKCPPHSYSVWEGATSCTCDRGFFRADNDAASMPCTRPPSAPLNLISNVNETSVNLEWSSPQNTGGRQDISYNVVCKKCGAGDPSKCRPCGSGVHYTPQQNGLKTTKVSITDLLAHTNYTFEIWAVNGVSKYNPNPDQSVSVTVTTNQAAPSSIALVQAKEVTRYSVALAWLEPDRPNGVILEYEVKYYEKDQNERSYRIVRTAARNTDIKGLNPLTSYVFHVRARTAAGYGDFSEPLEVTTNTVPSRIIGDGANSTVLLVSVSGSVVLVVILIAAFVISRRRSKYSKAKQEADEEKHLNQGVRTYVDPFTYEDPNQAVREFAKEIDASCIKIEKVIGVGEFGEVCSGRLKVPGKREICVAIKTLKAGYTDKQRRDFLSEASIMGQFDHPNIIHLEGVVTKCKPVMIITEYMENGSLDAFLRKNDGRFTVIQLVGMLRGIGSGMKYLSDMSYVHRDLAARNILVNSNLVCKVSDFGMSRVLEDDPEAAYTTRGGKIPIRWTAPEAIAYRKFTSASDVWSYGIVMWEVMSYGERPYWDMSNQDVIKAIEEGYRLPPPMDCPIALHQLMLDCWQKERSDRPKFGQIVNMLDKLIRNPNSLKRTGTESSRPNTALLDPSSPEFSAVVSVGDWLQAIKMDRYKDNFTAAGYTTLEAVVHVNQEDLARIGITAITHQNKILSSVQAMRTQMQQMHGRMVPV

SRC = SRC (Homo sapiens, UniProt P12931); test: Caliper kinase profiling: SRC; assay type: biochemical
Sequence of SRC (P12931 whole entry): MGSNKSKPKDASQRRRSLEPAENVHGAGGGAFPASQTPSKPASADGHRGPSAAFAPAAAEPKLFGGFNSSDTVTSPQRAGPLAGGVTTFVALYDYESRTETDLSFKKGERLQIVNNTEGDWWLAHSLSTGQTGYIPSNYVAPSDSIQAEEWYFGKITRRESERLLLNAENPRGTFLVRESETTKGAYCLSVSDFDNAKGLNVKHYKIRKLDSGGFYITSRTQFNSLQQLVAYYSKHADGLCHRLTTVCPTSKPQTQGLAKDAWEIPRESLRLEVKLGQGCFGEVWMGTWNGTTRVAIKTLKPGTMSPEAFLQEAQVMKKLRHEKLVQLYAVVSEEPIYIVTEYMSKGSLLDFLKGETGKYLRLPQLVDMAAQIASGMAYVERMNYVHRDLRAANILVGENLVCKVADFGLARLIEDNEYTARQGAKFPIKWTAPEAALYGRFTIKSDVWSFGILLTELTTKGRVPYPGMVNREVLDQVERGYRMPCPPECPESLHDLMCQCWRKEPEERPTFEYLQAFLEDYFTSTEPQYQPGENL

MST1R = MST1R (Homo sapiens, UniProt Q04912); test: Caliper kinase profiling: MST1R; assay type: biochemical; conditions: read-out: Average % Inh @ 1 μM
RET = RET (Homo sapiens, UniProt P07949); test: Caliper kinase profiling: RET; assay type: biochemical
Sequence of RET (P07949 29-1114): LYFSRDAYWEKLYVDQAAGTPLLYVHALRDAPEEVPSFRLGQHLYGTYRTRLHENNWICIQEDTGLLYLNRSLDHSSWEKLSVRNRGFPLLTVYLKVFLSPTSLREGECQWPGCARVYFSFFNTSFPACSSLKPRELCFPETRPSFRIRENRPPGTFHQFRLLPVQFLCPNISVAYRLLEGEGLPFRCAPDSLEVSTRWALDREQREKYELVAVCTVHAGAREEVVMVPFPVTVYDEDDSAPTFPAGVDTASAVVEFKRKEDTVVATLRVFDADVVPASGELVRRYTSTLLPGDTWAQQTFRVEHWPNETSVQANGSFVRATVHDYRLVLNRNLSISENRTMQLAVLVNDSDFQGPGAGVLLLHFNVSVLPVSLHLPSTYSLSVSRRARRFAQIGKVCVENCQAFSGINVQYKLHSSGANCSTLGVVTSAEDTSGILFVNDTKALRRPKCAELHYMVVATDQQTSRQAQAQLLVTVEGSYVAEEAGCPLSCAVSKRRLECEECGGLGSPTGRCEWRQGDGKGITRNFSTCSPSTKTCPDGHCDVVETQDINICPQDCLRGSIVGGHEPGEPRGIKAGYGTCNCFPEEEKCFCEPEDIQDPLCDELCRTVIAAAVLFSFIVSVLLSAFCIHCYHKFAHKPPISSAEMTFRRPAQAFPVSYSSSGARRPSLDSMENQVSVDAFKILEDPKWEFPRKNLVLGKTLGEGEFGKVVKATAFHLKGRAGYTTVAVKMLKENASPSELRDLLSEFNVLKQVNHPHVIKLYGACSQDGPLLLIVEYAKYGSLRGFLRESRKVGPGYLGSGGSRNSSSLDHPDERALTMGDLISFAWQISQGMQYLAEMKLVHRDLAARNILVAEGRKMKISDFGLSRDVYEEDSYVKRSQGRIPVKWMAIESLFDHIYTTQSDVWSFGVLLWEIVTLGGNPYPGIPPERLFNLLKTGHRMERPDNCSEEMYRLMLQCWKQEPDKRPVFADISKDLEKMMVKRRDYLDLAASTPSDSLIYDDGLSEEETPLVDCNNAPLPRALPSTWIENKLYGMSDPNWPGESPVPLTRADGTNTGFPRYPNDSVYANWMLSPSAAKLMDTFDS

EPHB1 = EPHB1 (Homo sapiens, UniProt P54762); test: Caliper kinase profiling: EPHB1; assay type: biochemical; conditions: EPHB1, 1 μM; read-out: Average % Inh @ 1 μM
Sequence of EPHB1 (P54762 18-984): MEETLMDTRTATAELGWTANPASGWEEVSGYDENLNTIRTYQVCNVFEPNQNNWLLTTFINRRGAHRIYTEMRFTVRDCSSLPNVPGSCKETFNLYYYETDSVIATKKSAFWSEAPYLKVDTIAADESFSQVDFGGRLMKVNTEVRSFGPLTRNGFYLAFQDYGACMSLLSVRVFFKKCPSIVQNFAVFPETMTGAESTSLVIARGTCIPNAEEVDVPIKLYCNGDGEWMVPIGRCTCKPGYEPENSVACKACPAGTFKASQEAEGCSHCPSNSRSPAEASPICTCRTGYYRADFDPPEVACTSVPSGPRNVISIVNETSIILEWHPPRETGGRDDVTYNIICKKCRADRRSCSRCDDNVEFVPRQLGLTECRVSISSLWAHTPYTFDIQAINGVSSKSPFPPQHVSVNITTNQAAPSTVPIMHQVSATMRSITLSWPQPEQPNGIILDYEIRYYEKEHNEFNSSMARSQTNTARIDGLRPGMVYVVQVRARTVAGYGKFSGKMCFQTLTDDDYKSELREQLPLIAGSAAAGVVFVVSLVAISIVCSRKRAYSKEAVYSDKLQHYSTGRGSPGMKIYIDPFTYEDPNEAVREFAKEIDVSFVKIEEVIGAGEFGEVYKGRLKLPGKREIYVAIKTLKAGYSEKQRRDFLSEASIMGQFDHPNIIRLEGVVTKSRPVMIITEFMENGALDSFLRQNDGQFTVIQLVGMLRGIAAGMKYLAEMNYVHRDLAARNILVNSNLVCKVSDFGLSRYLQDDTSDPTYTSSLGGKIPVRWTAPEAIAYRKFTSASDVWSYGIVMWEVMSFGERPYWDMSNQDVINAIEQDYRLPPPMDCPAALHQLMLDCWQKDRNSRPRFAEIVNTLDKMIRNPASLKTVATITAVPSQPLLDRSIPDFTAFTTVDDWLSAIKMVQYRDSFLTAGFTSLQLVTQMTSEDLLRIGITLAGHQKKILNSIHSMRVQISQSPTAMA

NuaK1 = biological target: T2, NuaK1 (Homo sapiens, UniProt O60285); test: Caliper kinase profiling: NuaK1; assay type: biochemical
T2 sequence (O60285 1-661): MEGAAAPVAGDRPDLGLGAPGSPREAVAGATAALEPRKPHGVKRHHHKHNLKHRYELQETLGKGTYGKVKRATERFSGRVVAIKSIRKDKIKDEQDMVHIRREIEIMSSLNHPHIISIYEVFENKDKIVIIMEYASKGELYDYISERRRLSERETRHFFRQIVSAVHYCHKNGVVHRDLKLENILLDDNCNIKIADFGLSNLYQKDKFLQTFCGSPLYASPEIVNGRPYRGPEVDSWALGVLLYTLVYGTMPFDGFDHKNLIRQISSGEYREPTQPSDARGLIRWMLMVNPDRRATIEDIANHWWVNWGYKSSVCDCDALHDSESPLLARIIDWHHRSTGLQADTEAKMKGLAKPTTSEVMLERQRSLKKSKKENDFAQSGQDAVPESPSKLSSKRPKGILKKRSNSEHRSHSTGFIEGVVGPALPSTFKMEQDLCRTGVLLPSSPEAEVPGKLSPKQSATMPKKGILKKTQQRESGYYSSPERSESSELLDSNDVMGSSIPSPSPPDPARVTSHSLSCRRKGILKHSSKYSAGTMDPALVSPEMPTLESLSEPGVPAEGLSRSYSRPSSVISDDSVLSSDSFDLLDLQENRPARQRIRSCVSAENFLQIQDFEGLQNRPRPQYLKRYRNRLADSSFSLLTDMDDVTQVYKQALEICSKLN

[2] = 10 nM, read-out: Average % Inh @ 10 nM
[3] = 100 nM, read-out: Average % Inh @ 100 nM
[4] = 1 μM, read-out: Average % Inh @ 1 μM

CC(C)c1cc(Nc2nc(N3CCCC3C(=O)Nc3ccc(F)nc3)nc3c2CCC3)n[nH]1 (single isomer, unassigned) [Compound 8b]
IC50 (PANC-1): 3.66 µM
tumor burden ([1]; COLO205 colon cancer model, nude mice, 1, 3, 10, 15 mg/kg oral, 20 day experiment (FIG. 1)): dose-dependently and significantly reduced tumor burden
body weights of the mice ([1]; COLO205 xenograft model (FIG. 3)): dose-dependently reduced body weights

O=C(Nc1ccc(F)nc1)C1CCCN1c1nc2c(c(Nc3cc(C4CC4)[nH]n3)n1)CCC2 (single isomer, unassigned) [Compound 2b, 1-(4-(5-cyclopropyl-1H-pyrazol-3-ylamino)-6,7-dihydro-5H-cyclopenta[d]pyrimidin-2-yl)-N-(6-fluoropyridin-3-yl)pyrrolidine-2-carboxamide]
inhibition at 1 µM (LTK): > 60%
inhibition at 1 µM (FRK): > 60%
inhibition at 1 µM (BTK): 40 to 59%
inhibition at 0.01 µM (BLK; [2]): < 39%
inhibition at 0.1 µM (BLK; [3]): < 39%
inhibition at 1 µM (BLK; [4]): > 60%
inhibition at 0.01 µM (Yes; [2]): < 39%
inhibition at 0.1 µM (Yes; [3]): 40 to 59%
inhibition at 1 µM (Yes; [4]): > 60%
inhibition at 1 µM (EPHA4): 40 to 59%
inhibition at 0.01 µM (SRC; [2]): < 39%
inhibition at 0.1 µM (SRC; [3]): > 60%
inhibition at 1 µM (SRC; [4]): > 60%
inhibition at 1 µM (MST1R): > 60%
inhibition at 0.01 µM (RET; [2]): < 39%
inhibition at 0.1 µM (RET; [3]): 40 to 59%
inhibition at 1 µM (RET; [4]): > 60%
inhibition at 1 µM (EPHB1): > 60%
inhibition at 0.01 µM (NuaK1; NuaK1, 10 nM, read-out: Average % Inh @ 10 nM): < 39%
inhibition at 0.1 µM (NuaK1; NuaK1, 100 nM, read-out: Average % Inh @ 100 nM): 40 to 59%
inhibition at 1 µM (NuaK1; NuaK1, 1 μM, read-out: Average % Inh @ 1 μM): > 60%
